Test results from patent US7232912B2, “Indazole compounds, pharmaceutical compositions, and methods for mediating or inhibiting cell proliferation” (Agouron Pharmaceuticals, Inc., priority 2000, dated 2007).
One block for each compound: values may come before it.

Tests used:
[1] = target: T1, human CHK1 (Homo sapiens, UniProt O14757); test: CHK1 Assay (coupled spectrophotometric); format: biochemical
T1 construct: C-terminally His-tagged full-length human CHK1 (FL-CHK1) was expressed using the baculovirus/insect cell system; made in house; host or cells: baculovirus/insect cells
T1 sequence (O14757 1-476): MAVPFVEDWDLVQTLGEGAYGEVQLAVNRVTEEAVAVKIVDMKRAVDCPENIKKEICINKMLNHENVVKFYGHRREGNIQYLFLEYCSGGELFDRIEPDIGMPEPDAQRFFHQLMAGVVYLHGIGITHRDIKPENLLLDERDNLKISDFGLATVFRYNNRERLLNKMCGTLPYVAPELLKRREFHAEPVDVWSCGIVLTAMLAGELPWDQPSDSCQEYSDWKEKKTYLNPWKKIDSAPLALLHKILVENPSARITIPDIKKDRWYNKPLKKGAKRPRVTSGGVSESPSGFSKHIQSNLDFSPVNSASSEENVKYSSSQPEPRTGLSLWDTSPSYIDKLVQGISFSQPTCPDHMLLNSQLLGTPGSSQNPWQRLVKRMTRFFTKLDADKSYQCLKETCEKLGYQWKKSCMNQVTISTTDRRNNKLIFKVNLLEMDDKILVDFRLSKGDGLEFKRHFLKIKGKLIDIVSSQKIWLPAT
Source text: C-terminally His-tagged full-length human CHK1 (FL-CHK1) was expressed using the baculovirus/insect cell system. It contains 6 histidine residues (6×His-tag) at the C-terminus of the 476 amino acid human CHK1. The protein was purified by conventional chromatographic techniques.
The production of ADP from ATP that accompanies phosphoryl transfer to the synthetic substrate peptide Syntide-2 ([…]) was coupled to oxidation of NADH using phosphoenolpyruvate (PEP) through the actions of pyruvate kinase (PK) and lactic dehydrogenase (LDH). The oxidation of NADH was monitored by following the decrease of absorbance at 340 nm (ε340=6.22 cm^−1 mM^−1) using a HP8452 spectrophotometer. Typical reaction solutions contained: […]; 0.15 mM NADH; 28 units of LDH/ml; 16 units of PK/ml; 3 mM DTT; 0.125 mM Syntide-2; 0.15 mM ATP; 25 mM MgCl2 in 50 mM TRIS, pH 7.5; and 400 mM NaCl. Assays were initiated with 10 nM of FL-CHK1. Ki values were determined by measuring initial enzyme activity in the presence of varying concentrations of test compounds. The data were analyzed using Enzyme Kinetic and Kaleidagraph software.

[2] = tested on: FAK; test: Coupled Spectrophotometric (FAK) Assay; format: biochemical
Procedure: Coupled Spectrophotometric (FAK) Assay
Tyrosine kinase assays were monitored using a Beckman DU 650 Spectrophotometer. Production of ADP was coupled to oxidation of NADH using phosphoenolpyruvate (PEP) through the actions of pyruvate kinase (PK) and lactic dehydrogenase (LDH). The oxidation of NADH was monitored by following the decrease in absorbance at 340 nm (ε340=6.22 cm^−1 mM^−1). Typical reaction solutions contained: 1 mM PEP, 250 μM NADH, 50 units of LDH/mL, 20 units of PK/mL, 5 mM DTT, in 200 mM Hepes, pH 7.5 and varying concentrations of poly(E4Y1), ATP and MgCl2. Assays were initiated with 40 nM of […].

Compound: Cc1c(O)cccc1-c1ccc2[nH]nc(/C=C/c3ccccc3)c2c1 [15′, 2-Methyl-3-[3-((E)-styryl)-1H-indazol-5-yl]-phenol]
inhibition at 1 µM ([1]; read-out: CHK1 % inhibition at 1 μM): 16%

Compound: C(=C\c1n[nH]c2ccc(-c3cncc4ccccc34)cc12)/c1ccccc1 [Example 16]
Ki [1]: 81 µM
FAK % Inhibition at 1 μM [2]: 47%

Compound: c1ccc2[nH]c(-c3n[nH]c4ccc(-c5cccc6[nH]ccc56)cc34)nc2c1 [Example 48, 3-(1H-Benzoimidazol-2-yl)-5-(1H-indol-4-yl)-1H-indazole]
Ki [1]: 7.82 µM

More lines, now with the values ahead:

inhibition at 10 µM ([1]; read-out: CHK1 % inhibition @ 10 μM, at 10 μM): 5%
Compound: Cc1c(O)cccc1-c1ccc2[nH]nc(-c3nc4ccccc4[nH]3)c2c1 [10′, 3-[3-(1H-Benzoimidazol-2-yl)-1H-indazol-5-yl]-2-methyl-phenol]

inhibition at 20 µM [1]: 80%
Compound: Fc1ccccc1-c1ccc2[nH]nc(-c3nc4ccccc4[nH]3)c2c1 [Example 6, 3-(1H-Benzoimidazol-2-yl)-5-(2-fluorophenyl)-1H-Indazole]
